How the values were obtained:
Type in all cases: in vitro ADME
Details in all cases: 1 μg/mL, 37° C.
[1] = Conversion of prodrug to drug in plasma (rat)
Procedure: (§1) The conversion of N-oxide prodrugs to the corresponding parent compounds is due to a reduction mechanism. […] The presence of an oxidant in the work-up solution should help preventing the reduction of the N-oxides.
(§2) Conversion in plasma: 10 μLs of a 100 μg/mL DMSO solution of the pro-drug were added to 1 mL plasma to reach a final concentration of 1 μg/mL. The incubation was performed at 37° C. and 8 aliquots were taken at different time points over 30 min. These aliquots were treated with 3 volumes of cold MeOH containing H2O2 (final concentration 10% v/v) and centrifuged at 3500 g for 20 min at 10° C. The supernatant was directly used to determine the drug levels by LC-MS-MS (HPLC chromatography on reversed phase column X-Terra MS C18 […] 2.1×30 mm Waters at 40° C., using a polarity gradient MeOH/Form.Ac.
(§3) 1% 20/80/MeOH; run time; 3.0 min; inj. Vol.: 10 μL; Flow: […] and MS/MS detection on a PE Sciex API-2000 MS/MS spectrometer; ion source: Turbospray; ionisation mode: ESP+).
(§4) Sample stability (plasma and blood): The final matrix were first prepared (plasma or blood treated with 3 volumes of cold MeOH containing H2O2—10% v/v—and centrifuged at 3500 g for 20 min at 10° C.) and then incubated at 37° C. into two tubes; the pro-drug or the drug were then incubated and finally their concentration determined by LC-MS-MS as described above.

[2] = Conversion of prodrug to drug in plasma (human)
Procedure: as §1, §2, §3, §4

[3] = Conversion of prodrug to drug in plasma (dog)
Procedure: as §1, §2, §3, §4

| t½ conversion prodrug to drug, Rat plasma [1] [h] | t½ conversion prodrug to drug, Human plasma [2] [h] | t½ conversion prodrug to drug, Dog plasma [3] [h] | SMILES |
| --- | --- | --- | --- |
| 2 | 6 | 16 | Cc1ccccc1-c1cc([N+]2([O-])CCOCC2)ncc1C(=O)N(C)Cc1cc(C(F)(F)F)cc(C(F)(F)F)c1.O [Example 16, N-(3,5-Bis-trifluoromethyl-benzyl)-N-methyl-6-(4-oxy-morpholin-4-yl)-4-o-tolyl-nicotinamide monohydrate] |
| 5 | 12 | 18 | CN(C(=O)C(C)(C)c1cc(C(F)(F)F)cc(C(F)(F)F)c1)c1cnc([N+]2([O-])CCOCC2)cc1-c1ccccc1Cl [Example 2, 2-(3,5-Bis-trifluoromethyl-phenyl)-N-[4-(2-chloro-phenyl)-6-(4-oxy-morpholin-4-yl)-pyridin-3-yl]-N-methyl-isobutyramide] |

| SMILES | t½ conversion prodrug to drug, Rat plasma [1] [h] | t½ conversion prodrug to drug, Human plasma [2] [h] | t½ conversion prodrug to drug, Dog plasma [3] [h] |
| --- | --- | --- | --- |
| Cc1ccccc1-c1cc([N+]2([O-])CCOCC2)ncc1N(C)C(=O)C(C)(C)c1cc(C(F)(F)F)cc(C(F)(F)F)c1 [Example 1, 2-(3,5-Bis-trifluoromethyl-phenyl)-N-methyl-N-[6-(4-oxy-morpholin-4-yl)-4-o-tolyl-pyridin-3-yl]-isobutyramide] | 4 | 8 | 18 |

From patent US6806370B2, “NK-1 receptor active amine oxide prodrugs” (Hoffmann-La Roche Inc., priority 2000, dated 2004)
